From patent publication US4324728A, “Compound nanaomycin A and derivatives thereof and a process for producing the same” (The Kitasato Institute, priority 1976, dated 1982)
Converted amounts (≈) assume the structure as drawn. Read-outs that look alike come from different tables or passages of the source.

How the values were obtained:
Saccharomyces sake = test: Minimal inhibitory concentration (agar); type: cell-based; settings: Saccharomyces, 96 h, pH 6.4, 4 days, 27° C., read-out: MIC
Trichophyton rubrum = test: Minimal inhibitory concentration (agar); type: cell-based; settings: pH 6.4, 4 days, 27° C.
Method: (§1) P potato agar (pH 6.4, 4 days, 27° C.)
(§2) MIC Minimal inhibitory concentration
(§3) Minimal inhibitory concentration was assayed by agar dilution method
(§4) (potato agar, pH 6.4, 27° C., 4 days).

Trichophyton schoenleini = test: Minimal inhibitory concentration (agar); type: cell-based; settings: pH 6.4, 4 days, 27° C.
Method: as §1, §2, §3, §4

Candida albicans = test: Minimal inhibitory concentration (agar); type: cell-based; settings: pH 6.4, 4 days, 27° C.
Method: as §1, §2, §3, §4

[1] = system: Mycoplasma gallisepticum KP-13; test: Antimycoplasma activity, inhibition zone; type: cell-based; settings: Eiken PPLO agar, pH 7.8, 8 days, 37° C.
Method: E Eiken PPLO agar (pH 7.8, 8 days, 37° C.)
(§5) Nanaomycin A and derivatives thereof according to the present invention are assayed in a similar manner to that designated as the paper disc method by Itoh, et al [J. of Antibiotics, 24, 855-859 (1971)], for example, as follows: […]

[2] = system: Aspergillus niger ATCC 6275; test: Minimal inhibitory concentration (agar); type: cell-based; settings: ATCC6275, 96 h, pH 6.4, 4 days, 27° C.
[3] = system: Mycobacterium smegmatis ATCC 607; test: Minimal inhibitory concentration (agar); type: cell-based; settings: Mycolicibacterium smegmatis, ATCC607, 48 h; nutrient agar, pH 7.0, 2 days, 37° C.
Microsporum gypseum 704 = test: Minimal inhibitory concentration (agar); type: cell-based; settings: Nannizzia gypsea, 704, 96 h; potato agar, pH 6.4, 4 days, 27° C.
Solubility = type: physicochemical
Trichophyton roseum = test: Minimal inhibitory concentration (agar); type: cell-based; settings: pH 6.4, 4 days, 27° C.
Salmonella typhimurium = test: Minimal inhibitory concentration (agar); type: cell-based; settings: Salmonella enterica, 48 h, pH 7.0, 2 days, 37° C.
in vivo = settings: mouse, ip
[4] = system: Aspergillus fumigatus IAM 2162; test: Minimal inhibitory concentration (agar); type: cell-based; settings: IAM2162, 96 h, potato agar, pH 6.4, 4 days, 27° C.
Method: | P potato agar (pH 6.4, 4 days, 27° C.)

Trichophyton asteroides = test: Minimal inhibitory concentration (agar); type: cell-based; settings: pH 6.4, 4 days, 27° C.
Proteus mirabilis = test: Minimal inhibitory concentration (agar); type: cell-based; settings: 48 h, nutrient agar, pH 7.0, 2 days, 37° C.
Method: (§6) N nutrient agar (pH 7.0, 2 days, 37° C.)

Bacillus cereus T = test: Minimal inhibitory concentration (agar); type: cell-based; settings: 48 h, nutrient agar, pH 7.0, 2 days, 37° C.
Method: as §6

[5] = system: Aerobacter aerogenes IAM 1183; test: Minimal inhibitory concentration (agar); type: cell-based; settings: Klebsiella aerogenes, IAM1183, 48 h; nutrient agar, pH 7.0, 2 days, 37° C.
Method: as §6

[6] = system: Staphylococcus aureus FS 1227 (PC-R); test: Minimal inhibitory concentration (agar); type: cell-based; settings: 48 h, nutrient agar, pH 7.0, 2 days, 37° C., penicillin resistant strain
Method: as §6

[7] = system: Staphylococcus aureus KB 64 (R-TC, EM); test: Minimal inhibitory concentration (agar); type: cell-based; settings: 48 h, nutrient agar, pH 7.0, 2 days, 37° C., tetracyclin, erythromycin resistant strain, read-out: MIC
Method: as §6

[8] = system: Proteus vulgaris IFO 3167; test: Minimal inhibitory concentration (agar); type: cell-based; settings: IFO3167, 48 h, nutrient agar, pH 7.0, 2 days, 37° C.
Method: as §6

[9] = system: Staphylococcus aureus KB 61 (R-TC, EM); test: Minimal inhibitory concentration (agar); type: cell-based; settings: 48 h, nutrient agar, pH 7.0, 2 days, 37° C., tetracyclin, erythromycin resistant strain, read-out: MIC
Method: as §6

[10] = system: Corynebacterium paurometabolum; test: Minimal inhibitory concentration (agar); type: cell-based; settings: Tsukamurella paurometabola, 48 h; nutrient agar, pH 7.0, 2 days, 37° C.
Method: as §6

Shigella sonnei E 33 = test: Minimal inhibitory concentration (agar); type: cell-based; settings: E33, 48 h, nutrient agar, pH 7.0, 2 days, 37° C.
Method: as §6

[11] = system: Pseudomonas aeruginosa P-3; test: Minimal inhibitory concentration (agar); type: cell-based; settings: P3, 48 h, nutrient agar, pH 7.0, 2 days, 37° C.
Method: as §6

[12] = system: Acholeplasma laidlawii (A); test: Antimycoplasma activity, inhibition zone; type: cell-based; settings: Hokken PPLO agar, pH 7.8, 8 days, 37° C.
Method: H Hokken PPLO agar (pH 7.8, 8 days, 37° C.)
as §5

[13] = system: Bacillus subtilis PCI 219; test: Minimal inhibitory concentration (agar); type: cell-based; settings: pH 7.0, 2 days, 37° C.
Method: (§7) Medium N nutrient agar (pH 7.0, 2 days, 37° C.)
as §2, §6

[14] = system: Staphylococcus aureus FDA 209P (JC-1); test: Minimal inhibitory concentration (agar); type: cell-based; settings: FDA209P, 48 h, nutrient agar, pH 7.0, 2 days, 37° C.
Method: as §7, §2, §6

Gram-positive bacteria = test: Antibacterial activity (in words); type: cell-based
Trichophyton ferrugineum = test: Minimal inhibitory concentration (agar); type: cell-based; settings: pH 6.4, 4 days, 27° C.
[15] = system: Trichophyton interdigitale; test: Minimal inhibitory concentration (agar); type: cell-based; settings: Trichophyton interdigitale, 96 h; potato agar, pH 6.4, 4 days, 27° C.; read-out: MIC
[16] = Trichophyton rubrum, 96 h, pH 6.4, potato agar, read-out: MIC
[17] = Trichophyton, 96 h, pH 6.4, potato agar, read-out: MIC
[18] = Candida albicans, 96 h, pH 6.4, potato agar, read-out: MIC
[19] = Bacillus subtilis, PCI219, 48 h, pH 7, nutrient agar, read-out: MIC
[20] = Microsporum ferrugineum, 96 h, pH 6.4, potato agar, read-out: MIC

CC(=O)Oc1cccc2c1C(=O)C1=C(CC(CC(=O)O)OC1C)C2=O (stereo not shown) [Acetylnanaomycin A, acetylnanaomycin A]
MIC (Saccharomyces sake; pH 6.4, potato agar): 12.5 µg/mL (≈ 36.3 µM)
MIC (Trichophyton rubrum; [16]): < 0.2 µg/mL
MIC (Trichophyton schoenleini; [17]): < 0.2 µg/mL
MIC (Candida albicans; [18]): 25 µg/mL (≈ 72.6 µM)
Inhibition Zone [1]: 28.5 mm
MIC ([2]; potato agar, read-out: MIC): 25 µg/mL (≈ 72.6 µM)
MIC [3]: 50 µg/mL (≈ 145 µM)
MIC (Microsporum gypseum 704): 0.4 µg/mL (≈ 1.16 µM)
Solubility in ether (Solubility): Soluble
Solubility in methanol, ethanol, ethylacetate, chloroform and acetone (Solubility): Soluble
Solubility in n-hexane and petroleum ether (Solubility): Insoluble
Solubility in water (Solubility): Insoluble
MIC (Trichophyton roseum; [17]): 0.4 µg/mL (≈ 1.16 µM)
MIC (Salmonella typhimurium; nutrient agar): 50 µg/mL (≈ 145 µM)
LD50 (in vivo): 38.5 mg/kg
MIC [4]: 6.3 µg/mL (≈ 18.3 µM)
MIC (Trichophyton asteroides; [17]): 0.8 µg/mL (≈ 2.32 µM)
MIC (Proteus mirabilis): > 100 µg/mL
MIC (Bacillus cereus T): 25 µg/mL (≈ 72.6 µM)
MIC [5]: > 100 µg/mL
MIC [6]: 0.8 µg/mL (≈ 2.32 µM)
MIC [7]: 0.4 µg/mL (≈ 1.16 µM)
MIC [8]: 50 µg/mL (≈ 145 µM)
MIC [9]: 0.8 µg/mL (≈ 2.32 µM)
MIC [10]: 6.3 µg/mL (≈ 18.3 µM)
MIC (Shigella sonnei E 33): 100 µg/mL (≈ 290 µM)
MIC [11]: > 100 µg/mL
Inhibition Zone [12]: none
MIC [13, 19]: 3.1 µg/mL (≈ 9 µM)
MIC [14]: 0.8 µg/mL (≈ 2.32 µM)
activity against Gram-positive bacteria (Gram-positive bacteria): a strong activity against Gram-positive bacteria than nanaomycin A
MIC (Trichophyton ferrugineum; [20]): 0.8 µg/mL (≈ 2.32 µM)
MIC [15]: 1.6 µg/mL (≈ 4.65 µM)

CC1OC(CC(=O)O)CC2=C1C(=O)c1c(O)cccc1C2=O (stereo not shown) [Nanaomycin A, nanaomycin A]
MIC (Saccharomyces sake; pH 6.4, potato agar): 12.5 µg/mL (≈ 41.4 µM)
MIC (Saccharomyces sake; potato agar): 31.2 µg/mL (≈ 103 µM)
MIC (Trichophyton rubrum; [16]): < 0.2 µg/mL
MIC (Trichophyton rubrum; potato agar): < 0.1 µg/mL
MIC (Trichophyton schoenleini; [17]): < 0.2 µg/mL
MIC (Trichophyton schoenleini; potato agar): 0.2 µg/mL (≈ 0.662 µM)
MIC (Candida albicans; [18]): 50 µg/mL (≈ 165 µM)
MIC (Candida albicans; potato agar): 31.2 µg/mL (≈ 103 µM)
Inhibition Zone [1]: 28.7 mm
MIC ([2]; pH 6.4, potato agar): 62.5 µg/mL (≈ 207 µM)
MIC ([2]; potato agar, read-out: MIC): 25 µg/mL (≈ 82.7 µM)
MIC [3]: 100 µg/mL (≈ 331 µM)
MIC (Microsporum gypseum 704): 0.8 µg/mL (≈ 2.65 µM)
Solubility in ether (Solubility): Easily soluble
Solubility in methanol, ethanol, ethylacetate, chloroform and acetone (Solubility): Easily soluble
Solubility in n-hexane and petroleum ether (Solubility): Insoluble
Solubility in water (Solubility): Insoluble
MIC (Trichophyton roseum; [17]): < 0.2 µg/mL
MIC (Trichophyton roseum; potato agar): 0.4 µg/mL (≈ 1.32 µM)
MIC (Salmonella typhimurium; nutrient agar): 100 µg/mL (≈ 331 µM)
MIC (Salmonella typhimurium; pH 7, nutrient agar): 62.5 µg/mL (≈ 207 µM)
LD50 (in vivo): 28.2 mg/kg
MIC [4]: 6.3 µg/mL (≈ 20.8 µM)
MIC (Trichophyton asteroides; [17]): 0.8 µg/mL (≈ 2.65 µM)
MIC (Trichophyton asteroides; potato agar): 1.6 µg/mL (≈ 5.29 µM)
MIC (Proteus mirabilis): > 100 µg/mL
MIC (Bacillus cereus T): 12.5 µg/mL (≈ 41.4 µM)
MIC [5]: > 100 µg/mL
MIC [6]: 1.6 µg/mL (≈ 5.29 µM)
MIC [7]: 0.8 µg/mL (≈ 2.65 µM)
MIC [8]: 50 µg/mL (≈ 165 µM)
MIC [9]: 1.6 µg/mL (≈ 5.29 µM)
MIC [10]: 12.5 µg/mL (≈ 41.4 µM)
MIC (Shigella sonnei E 33): 100 µg/mL (≈ 331 µM)
MIC [11]: > 100 µg/mL
Inhibition Zone [12]: none
MIC [13, 19]: 6.3 µg/mL (≈ 20.8 µM)
MIC ([13]; nutrient agar): 7.8 µg/mL (≈ 25.8 µM)
MIC [14]: 2 µg/mL (≈ 6.62 µM)
activity against Gram-positive bacteria (Gram-positive bacteria): strong activity
MIC (Trichophyton ferrugineum; [20]): 0.8 µg/mL (≈ 2.65 µM)
MIC (Trichophyton ferrugineum; potato agar): 1.6 µg/mL (≈ 5.29 µM)
MIC [15]: 1.6 µg/mL (≈ 5.29 µM)
